Experiments:
S. aureus ATCC 29213 = assay: Minimum Inhibitory Concentration (MIC) assay, S. aureus; format: cell-based; settings: Staphylococcus aureus, ATCC29213; broth microdilution; read-out: MIC against S. Aureus
Procedure: (§1) The antimicrobial activity of the compounds of the invention may be evaluated by a number of methods, including the following visual minimum inhibitory concentration (MIC) assay. This assay determines the minimum concentration of compound required to inhibit growth of a bacterial strain.
(§2) Minimum Inhibitory Concentration (MIC) Assay
(§3) Whole-cell antibacterial activity is determined by broth microdilution using conditions recommended by the NCCLS (see National Committee for Clinical Laboratory Standards. 2001. Performance standards for antimicrobial susceptibility testing: 11th informational supplement. Vol. 21, no. 1, M100-S11. National Committee for Clinical Laboratory Standards, Wayne, Pa.). Test compounds are dissolved in DMSO and diluted 1:50 in Mueller-Hinton II broth (Becton-Dickinson) to produce a 256 μg/ml stock solution. In a 96-well microtiter plate, the compound solution is serially two-fold diluted in Mueller-Hinton II broth. After the compounds are diluted, a 50 μl aliquot of the test organism (˜1×10^6 cfu/mL) is added to each well of the microtiter plate. The final test concentrations ranges from 0.125-128 μg/mL. Inoculated plates are incubated in ambient air at 37° C. for 18 to 24 hours. The organisms selected for testing included laboratory strains S. aureus ATCC 29213 and E. coli ATCC 25922 (strains purchased from American Type Culture Collection, Manassas, Va.), S. aureus FQR700699, and Paeruginosa 27853. The minimum inhibitory concentration (MIC) is determined as the lowest concentration of compound that inhibited visible growth of the test organism.

E. coli ATCC 25922 = assay: Minimum Inhibitory Concentration (MIC) assay, E. coli; format: cell-based; settings: Escherichia coli, ATCC25922; broth microdilution; read-out: MIC against E. coli
Procedure: as §1, §2, §3

| Structure (SMILES) | MIC (S. aureus ATCC 29213) | MIC (E. coli ATCC 25922) |
| --- | --- | --- |
| CC1CN(c2cc3c(cc2F)c(=O)c2c(=O)[nH]sc2n3C2CC2)CCN1 (centres unmarked) [Compound 17, 9-cyclopropyl-6-fluoro-7-(3-methyl-piperazin-1-yl)isothia-zolo[5,4-b]quinoline-3,4(2H,9H)-dione] | ≤ 1 µg/mL | ≤ 1 µg/mL |
| O=c1[nH]sc2c1c(=O)c1cc(F)c(N3CCC(O)C3)cc1n2C1CC1 (centres unmarked) [Compound 18, 9-cyclopropyl-6-fluoro-7-(3-hydroxy-pyrrolidin-1-yl)isothia-zolo[5,4-b]quinoline-3,4(2H,9H)-dione] | ≤ 1 µg/mL | ≤ 1 µg/mL |
| O=c1[nH]sc2c1c(=O)c1cc(F)c(N3CCOCC3)cc1n2C1CC1 [Compound 19, 9-cyclopropyl-6-fluoro-7-morpholino-isothiazolo[5,4-b]quinoline-3,4(2H,9H)-dione] | ≤ 1 µg/mL | ≤ 1 µg/mL |
| O=c1[nH]sc2c1c(=O)c1cc(F)c(N3CCNCC3)cc1n2C1CC1 [Compound 20, 9-cyclopropyl-6-fluoro-7-(piperazin-1-yl)isothia-zolo[5,4-b]quinoline-3,4(2H,9H)-dione] | ≤ 1 µg/mL | ≤ 1 µg/mL |
| CN1CCN(c2cc3c(cc2F)c(=O)c2c(=O)[nH]sc2n3C2CC2)CC1 [Compound 21, 9-cyclopropyl-6-fluoro-7-(4-methyl-piperazin-1-yl)isothia-zolo[5,4-b]quinoline-3,4(2H,9H)-dione] | ≤ 1 µg/mL | ≤ 1 µg/mL |
| CN(C)C1CCN(c2cc3c(cc2F)c(=O)c2c(=O)[nH]sc2n3C2CC2)C1 (centres unmarked) [Compound 22, 9-cyclopropyl-7-(3-(dimethyl-amino)pyrrolidin-1-yl)-6-fluoroiso-thiazolo[5,4-b]quinoline-3,4(2H,9H)-dione] | ≤ 1 µg/mL | ≤ 1 µg/mL |
| O=c1[nH]sc2c1c(=O)c1cc(F)c(N3CCCCC3)cc1n2C1CC1 [Compound 23, 9-cyclopropyl-6-fluoro-7-(piperidin-1-yl)isothia-zolo[5,4-b]quinoline-3,4(2H,9H)-dione] | ≤ 1 µg/mL | – |
| O=c1[nH]sc2c1c(=O)c1cc(F)c(N3CCCC3)cc1n2C1CC1 [Compound 24, 9-cyclopropyl-6-fluoro-7-(pyrrolidin-1-yl)isothia-zolo[5,4-b]quinoline-3,4(2H,9H)-dione] | ≤ 1 µg/mL | – |
| CN(C(=O)OC(C)(C)C)C1CCN(c2cc3c(cc2F)c(=O)c2c(=O)[nH]sc2n3C2CC2)C1 (centres unmarked) [Compound 25, tert-butyl 1-(9-cyclopropyl-6-fluoro-3,4-dioxo-2,3,4,9-tetrahydroiso-thiazolo[5,4-b]quinolin-7-yl)pyrrolidin-3-yl(methyl) carbamate] | ≤ 1 µg/mL | – |
| CC(C)(C)OC(=O)N1CCN(c2cc3c(cc2F)c(=O)c2c(=O)[nH]sc2n3C2CC2)CC1 [Compound 26, tert-butyl 4-(9-cyclopropyl-6-fluoro-3,4-dioxo-2,3,4,9-tetrahydroiso-thiazolo[5,4-b]quinolin-7-yl)piperazine-1-carboxylate] | ≤ 1 µg/mL | ≤ 1 µg/mL |
| CC(C)(C)OC(=O)NC1CCN(c2cc3c(cc2F)c(=O)c2c(=O)[nH]sc2n3C2CC2)C1 (centres unmarked) [Compound 27, tert-butyl 1-(9-cyclopropyl-6-fluoro-3,4-dioxo-2,3,4,9-tetrahydroiso-thiazolo[5,4-b]quinolin-7-yl)pyrrolidin-3-ylcarbamate] | ≤ 1 µg/mL | ≤ 1 µg/mL |
| O=c1[nH]sc2c1c(=O)c1cc(F)c(N3CCSCC3)cc1n2C1CC1 [Compound 28, 9-cyclopropyl-6-fluoro-7-thiomorpho-linoiso-thiazolo[5,4-b]quinoline-3,4(2H,9H)-dione] | ≤ 1 µg/mL | ≤ 1 µg/mL |
| O=c1[nH]sc2c1c(=O)c1cc(F)c(NCCN3CCOCC3)cc1n2C1CC1 [Compound 29, 9-cyclopropyl-6-fluoro-7-(2-morpholino-ethyl-amino)iso-thiazolo[5,4-b]quinoline-3,4(2H,9H)-dione] | ≤ 1 µg/mL | ≤ 1 µg/mL |
| O=c1[nH]sc2c1c(=O)c1cc(F)c(N3CCN(CCN4CCCC4)CC3)cc1n2C1CC1 [Compound 30] | ≤ 1 µg/mL | ≤ 1 µg/mL |
| CCn1c2cc(N3CCNCC3)c(F)cc2c(=O)c2c(=O)[nH]sc21 [Compound 31, 9-ethyl-6-fluoro-7-(piperazin-1-yl)isothia-zolo[5,4-b]quinoline-3,4(2H,9H)-dione] | ≤ 1 µg/mL | ≤ 1 µg/mL |
| CN(C)CCN1CCN(c2cc3c(cc2F)c(=O)c2c(=O)[nH]sc2n3C2CC2)CC1 [Compound 32, 9-cyclopropyl-7-(4-(2-(dimethyl-amino)ethyl)piperazin-1-yl)-6-fluoroiso-thiazolo[5,4-b]quinoline-3,4(2H,9H)-dione] | ≤ 1 µg/mL | ≤ 1 µg/mL |
| O=c1[nH]sc2c1c(=O)c1cc(F)c(N3CCN(CCN4CCOCC4)CC3)cc1n2C1CC1 [Compound 33, 9-cyclopropyl-6-fluoro-7-(4-(2-morpho-linoethyl)piperazin-1-yl)isothia-zolo[5,4-b]quinoline-3,4(2H,9H)-dione] | ≤ 1 µg/mL | ≤ 1 µg/mL |
| COc1c(N2CC[C@H](C(C)(C)N)C2)ccc2c(=O)c3c(=O)[nH]sc3n(C3CC3)c12 [Compound 60, (S)-7-(3-(2-aminopropan-2-yl)pyrrolidin-1-yl)-9-cyclopropyl-8-methoxyiso-thiazolo[5,4-b]quinoline-3,4(2H,9H)-dione] | ≤ 1 µg/mL | – |
| CCn1c2s[nH]c(=O)c2c(=O)c2cc(F)c(N3CCNCC3)c(OC)c21 [Compound 62, 9-ethyl-6-fluoro-8-methoxy-7-(piperazin-1-yl)isothia-zolo[5,4-b]quinoline-3,4(2H,9H)-dione] | ≤ 1 µg/mL | – |
| COc1c(N2CC[C@@H](CN)C2)ccc2c(=O)c3c(=O)[nH]sc3n(C3CC3)c12 [Compound 65, (S)-7-(3-(aminomethyl)-pyrrolidin-1-yl)-9-cyclopropyl-8-methoxyiso-thiazolo[5,4-b]quinoline-3,4(2H,9H)-dione] | ≤ 1 µg/mL | – |
| COc1c(N2C[C@@H]3CCCN[C@@H]3C2)c(F)cc2c(=O)c3c(=O)[nH]sc3n(C3CC3)c12 [Compound 69, 9-cyclopropyl-6-fluoro-8-methoxy-7-((4aS,7aS)-octahydro-pyrrolo[3,4-b]pyridin-6-yl)isothia-zolo[5,4-b]quinoline-3,4(2H,9H)-dione] | ≤ 1 µg/mL | – |
| COc1cc2c(=O)c3c(=O)[nH]sc3n(C3CC3)c2c(F)c1N1CCNCC1 [Compound 84, 9-cyclopropyl-8-fluoro-6-methoxy-7-(piperazin-1-yl)isothia-zolo[5,4-b]quinoline-3,4(2H,9H)-dione] | – | ≤ 1 µg/mL |
| CC[C@H](NC)[C@@H]1CCN(c2c(F)cc3c(=O)c4c(=O)[nH]sc4n(C4CC4)c3c2OC)C1 [Compound 91, 9-cyclopropyl-6-fluoro-8-methoxy-7-((R)-3-((S)-1-(methylamino)-propyl)pyrrolidin-1-yl)isothia-zolo[5,4-b]quinoline-3,4(2H,9H)-dione] | ≤ 1 µg/mL | – |
| COc1c(N2CC[C@@H](N)C2)c(F)cc2c(=O)c3c(=O)[nH]sc3n(C3CC3)c12 [Compound 96, (R)-7-(3-amino-pyrrolidin-1-yl)-9-cyclopropyl-6-fluoro-8-methoxyiso-thiazolo[5,4-b]quinoline-3,4(2H,9H)-dione] | ≤ 1 µg/mL | – |
| COc1c(N2CC[C@@H](N)C2)ccc2c(=O)c3c(=O)[nH]sc3n(C3CC3)c12 [Compound 97, (R)-7-(3-amino-pyrrolidin-1-yl)-9-cyclopropyl-8-methoxyiso-thiazolo[5,4-b]quinoline-3,4(2H,9H)-dione] | ≤ 1 µg/mL | – |
| CN[C@@H]1CCN(c2c(F)cc3c(=O)c4c(=O)[nH]sc4n(C4CC4)c3c2OC)C1 [Compound 98, (R)-9-cyclo-propyl-6-fluoro-8-methoxy-7-(3-(methylamino)-pyrrolidin-1-yl)isothia-zolo[5,4-b]quinoline-3,4(2H,9H)-dione] | ≤ 1 µg/mL | – |
| CN[C@@H]1CCN(c2ccc3c(=O)c4c(=O)[nH]sc4n(C4CC4)c3c2OC)C1 [Compound 99, (R)-9-cyclo-propyl-8-methoxy-7-(3-(methyl-amino)-pyrrolidin-1-yl)iso-thiazolo[5,4-b]quinoline-3,4(2H,9H)-dione] | ≤ 1 µg/mL | – |
| COc1c(N2CCC(N)(CO)C2)c(F)cc2c(=O)c3c(=O)[nH]sc3n(C3CC3)c12 (centres unmarked) [Compound 109, 7-(3-amino-3-(hydroxy-methyl)-pyrrolidin-1-yl)-9-cyclo-propyl-6-fluoro-8-methoxyiso-thiazolo[5,4-b]quinoline-3,4(2H,9H)-dione] | ≤ 1 µg/mL | – |
| COc1c(N2CC[C@@H]([C@@H](C)N)C2)ccc2c(=O)c3c(=O)[nH]sc3n(C3CC3)c12 [Compound 110, 7-((R)-3-((R)-1-aminoethyl)-pyrrolidin-1-yl)-9-cyclo-propyl-8-methoxyiso-thiazolo[5,4-b]quinoline-3,4(2H,9H)-dione] | ≤ 1 µg/mL | – |
| COc1c(N2CC[C@@H](C(C)NC3CCCC3)C2)c(F)cc2c(=O)c3c(=O)[nH]sc3n(C3CC3)c12 (stereo partly drawn) [Compound 113, (R)-7-(3-(1-(cyclopentyl-amino)ethyl)pyrrolidin-1-yl)-9-cyclopropyl-6-fluoro-8-methoxyiso-thiazolo[5,4-b]quinoline-3,4(2H,9H)-dione] | ≤ 1 µg/mL | – |

From patent US8044204B2, “8-methoxy-9H-isothiazolo[5,4-b]quinoline-3,4-diones and related compounds as anti-infective agents” (Achillion Pharmaceuticals, Inc., priority 2005, dated 2011)
